Laboratory results: ChEMBL document CHEMBL1275507, “Genomic analysis reveals a point mutation in the two-component sensor gene graS that leads to intermediate vancomycin resistance in clinical Staphylococcus aureus” (2008)
Converted amounts (≈) assume the structure as drawn.

Experiments:
Staphylococcus aureus [1] = test: Antimicrobial activity against 2 MCF graRS-deficient Staphylococcus aureus isolate JKD6205 harboring pCu1 plasmid by Etest method
Staphylococcus aureus [2] = test: Antimicrobial activity against 2 MCF graRS-deficient Staphylococcus aureus isolate JKD6206 harboring plasmid JKD6151 by Etest method
Staphylococcus aureus [3] = test: Antimicrobial activity against 2 mCF Staphylococcus aureus isolate JKD6208 harboring graS T136I mutant gene by Etest method
Staphylococcus aureus [4] = test: Antimicrobial activity against 2 MCF vancomycin-intermediate Staphylococcus aureus isolate JKD6008 by Etest method
Staphylococcus aureus [5] = test: Antimicrobial activity against 2 MCF graRS-deficient Staphylococcus aureus isolate JKD6196 by Etest method

CN[C@H](CC(C)C)C(=O)N[C@H]1C(=O)N[C@@H](CC(N)=O)C(=O)N[C@H]2C(=O)N[C@H]3C(=O)N[C@H](C(=O)N[C@H](C(=O)O)c4cc(O)cc(O)c4-c4cc3ccc4O)[C@H](O)c3ccc(c(Cl)c3)Oc3cc2cc(c3O[C@@H]2O[C@H](CO)[C@@H](O)[C@H](O)[C@H]2O[C@H]2C[C@](C)(N)[C@H](O)[C@H](C)O2)Oc2ccc(cc2Cl)[C@H]1O [VANCOMYCIN]
MIC (Staphylococcus aureus [1]): 1.5 µg/mL (≈ 1.04 µM)
MIC (Staphylococcus aureus [2]): 3 µg/mL (≈ 2.07 µM)
MIC (Staphylococcus aureus [3]): 6 µg/mL (≈ 4.14 µM)
MIC (Staphylococcus aureus [4]): 8 µg/mL (≈ 5.52 µM)
MIC (Staphylococcus aureus [5]): 1.5 µg/mL (≈ 1.04 µM)
